In ChEMBL document CHEMBL4765323, “Design, synthesis, and biological evaluation of novel miconazole analogues containing selenium as potent antifungal agents” (Eur J Med Chem, 2020) one finds MIC data, which are given here for eight molecules.

Holding throughout (assay type): functional
In assay [1] the test system is Candida albicans. Nature of the assay: Antifungal activity against Candida albicans CPCC400616 measured after 24 hrs by micro-broth dilution assay.
Assay [2] concerns Candida albicans. The assay is described as follows: Antifungal activity against Candida albicans ATCC SC5314 measured after 24 hrs by micro-broth dilution assay. For orientation: Dilution methods test growth across graded concentrations, often in twofold steps.
For another assay, the system named is [Candida] zeylanoides. Nature of the assay: Antifungal activity against Candida zeylanoides CMGCC2.3739 measured after 24 hrs by micro-broth dilution assay. The note with it: Dujonia zeylanoides.
For the next assay, the system named is Cryptococcus neoformans. Nature of the assay: Antifungal activity against Cryptococcus neoformans CGMCC2.3161 measured after 72 hrs by micro-broth dilution assay.
A further assay deals with Pichia kudriavzevii. Nature of the assay: Antifungal activity against Candida krusei AS 2.1045 measured after 24 hrs by micro-broth dilution assay.
Another assay relates to Nakaseomyces glabratus. Nature of the assay: Antifungal activity against clinical isolate Candida glabrata measured after 24 hrs by micro-broth dilution assay.
In the next assay the test system is Candida parapsilosis. The assay is described as follows: Antifungal activity against Candida parapsilosis ATCC 22019 measured after 24 hrs by micro-broth dilution assay. As to conditions: Lodderomyces parapsilosis.
The next assay concerns Aspergillus fumigatus. The assay is described as follows: Antifungal activity against Aspergillus fumigatus CGMCC 3.7795 measured after 72 hrs by micro-broth dilution assay.
Assay [3] relates to Candida albicans. The assay is described as follows: Antifungal activity against fluconazole-resistant Candida albicans CaR measured after 24 hrs by micro-broth dilution assay.
Assay [4] relates to Candida albicans. Nature of the assay: Antifungal activity against fluconazole-resistant Candida albicans 17 measured after 24 hrs by micro-broth dilution assay.
For assay [5], the system named is Candida albicans. The assay is described as follows: Antifungal activity against fluconazole-resistant Candida albicans 632 measured after 24 hrs by micro-broth dilution assay.
Assay [6] has as its system Candida albicans. The assay is described as follows: Antifungal activity against Candida albicans 901 measured after 24 hrs by micro-broth dilution assay.
Assay [7] has as its system Candida albicans. The assay is described as follows: Antifungal activity against fluconazole-resistant Candida albicans strain 904 measured after 24 hrs by micro-broth dilution assay.

Values after ≈ are worked out from the molar mass of the structure shown.

In general, MIC refers to the lowest concentration that inhibits growth of the organism. As to `COc1ccc(C[Se]C(Cn2ccnc2)c2ccc(F)cc2F)cc1` (centres undefined), the MIC against Candida albicans [1] came to 0.25 µg/mL (≈ 0.614 µM); in the assay with Candida albicans [2], 0.13 µg/mL (≈ 0.319 µM); in assay [Candida] zeylanoides, 2 µg/mL (≈ 4.91 µM); against Cryptococcus neoformans, 0.5 µg/mL (≈ 1.23 µM); against Pichia kudriavzevii, 2 µg/mL (≈ 4.91 µM); against Nakaseomyces glabratus, 0.5 µg/mL (≈ 1.23 µM). Also, the MIC is 0.25 µg/mL (≈ 0.614 µM) in the assay with Candida parapsilosis; 1 µg/mL (≈ 2.46 µM) against Aspergillus fumigatus; 8 µg/mL (≈ 19.6 µM) against Candida albicans [3]; 8 µg/mL (≈ 19.6 µM) in the assay on Candida albicans [4]; 8 µg/mL (≈ 19.6 µM) in the assay with Candida albicans [5]; 8 µg/mL (≈ 19.6 µM) in the assay with Candida albicans [6]. Besides, in the assay on Candida albicans [7], it took 2 µg/mL (≈ 4.91 µM) to inhibit growth (MIC).

For `Fc1ccc(C(Cn2ccnc2)[Se]Cc2ccccc2)c(F)c1` (centres undefined), the MIC against Candida albicans [1] came to 0.25 µg/mL (≈ 0.663 µM); against Candida albicans [2], 0.13 µg/mL (≈ 0.345 µM); in assay [Candida] zeylanoides it was 0.5 µg/mL (≈ 1.33 µM); with Cryptococcus neoformans, 0.5 µg/mL (≈ 1.33 µM); against Pichia kudriavzevii it was 0.25 µg/mL (≈ 0.663 µM); in the assay with Nakaseomyces glabratus it was 1 µg/mL (≈ 2.65 µM). The MIC turned out to be 0.13 µg/mL (≈ 0.345 µM) in the assay with Candida parapsilosis; 1 µg/mL (≈ 2.65 µM) in the assay on Aspergillus fumigatus; 4 µg/mL (≈ 10.6 µM) with Candida albicans [3]; 8 µg/mL (≈ 21.2 µM) against Candida albicans [4]; 4 µg/mL (≈ 10.6 µM) with Candida albicans [5]; 2 µg/mL (≈ 5.3 µM) in the assay with Candida albicans [6]. Also, in the assay on Candida albicans [7], the MIC was found to be 64 µg/mL (≈ 170 µM).

Turning to `COc1cccc(C[Se]C(Cn2ccnc2)c2ccc(F)cc2F)c1` (centres undefined), the MIC in the assay on Candida albicans [1] is 0.06 µg/mL (≈ 0.147 µM); against Candida albicans [2] it was 0.13 µg/mL (≈ 0.319 µM); in assay [Candida] zeylanoides, 1 µg/mL (≈ 2.46 µM); against Cryptococcus neoformans it was 0.5 µg/mL (≈ 1.23 µM); with Pichia kudriavzevii, 2 µg/mL (≈ 4.91 µM); against Nakaseomyces glabratus it was 1 µg/mL (≈ 2.46 µM). The MIC is 0.5 µg/mL (≈ 1.23 µM) with Candida parapsilosis; 2 µg/mL (≈ 4.91 µM) against Aspergillus fumigatus; 4 µg/mL (≈ 9.82 µM) against Candida albicans [3]; 16 µg/mL (≈ 39.3 µM) with Candida albicans [4]; 2 µg/mL (≈ 4.91 µM) against Candida albicans [5]; 8 µg/mL (≈ 19.6 µM) in the assay on Candida albicans [6]. Moreover, it took 16 µg/mL (≈ 39.3 µM) to inhibit growth against Candida albicans [7] (MIC).

As for `COc1cc(Br)c(C[Se]C(Cn2ccnc2)c2ccc(Cl)cc2Cl)cc1OC` (centres undefined), the MIC in the assay on Candida albicans [1] was 0.25 µg/mL (≈ 0.455 µM); against Candida albicans [2], 0.03 µg/mL (≈ 0.0546 µM); in assay [Candida] zeylanoides it was over 128 µg/mL; in the assay on Cryptococcus neoformans, 0.5 µg/mL (≈ 0.91 µM); against Pichia kudriavzevii, over 128 µg/mL; against Nakaseomyces glabratus, 0.5 µg/mL (≈ 0.91 µM). Moreover, the MIC is over 128 µg/mL against Candida parapsilosis; 16 µg/mL (≈ 29.1 µM) in the assay on Aspergillus fumigatus; 128 µg/mL (≈ 233 µM) in the assay with Candida albicans [3]; over 128 µg/mL against Candida albicans [4]; over 128 µg/mL against Candida albicans [5]; 128 µg/mL (≈ 233 µM) in the assay on Candida albicans [6]. The MIC against Candida albicans [7] was 32 µg/mL (≈ 58.3 µM).

On to `COc1cc(C[Se]C(Cn2ccnc2)c2ccc(F)cc2F)cc(OC)c1` (centres undefined), for which the MIC with Candida albicans [1] came to 0.5 µg/mL (≈ 1.14 µM); against Candida albicans [2] it was 0.13 µg/mL (≈ 0.297 µM); in [Candida] zeylanoides it was 1 µg/mL (≈ 2.29 µM); against Cryptococcus neoformans, 8 µg/mL (≈ 18.3 µM); with Pichia kudriavzevii, 8 µg/mL (≈ 18.3 µM); in the assay with Nakaseomyces glabratus, 0.5 µg/mL (≈ 1.14 µM). In addition, the MIC stood at 8 µg/mL (≈ 18.3 µM) in the assay on Candida parapsilosis; 8 µg/mL (≈ 18.3 µM) against Aspergillus fumigatus; 128 µg/mL (≈ 293 µM) against Candida albicans [3]; 8 µg/mL (≈ 18.3 µM) against Candida albicans [4]; 8 µg/mL (≈ 18.3 µM) with Candida albicans [5]; 2 µg/mL (≈ 4.57 µM) against Candida albicans [6]. Further, in the assay with Candida albicans [7], the MIC was 4 µg/mL (≈ 9.15 µM).

For `Fc1ccc(C[Se]C(Cn2ccnc2)c2ccc(Cl)cc2Cl)cc1` (centres undefined), the MIC against Candida albicans [1] came out at 0.03 µg/mL (≈ 0.0701 µM); in the assay with Candida albicans [2], 0.03 µg/mL (≈ 0.0701 µM); in assay [Candida] zeylanoides it was 4 µg/mL (≈ 9.34 µM); with Cryptococcus neoformans it was 0.25 µg/mL (≈ 0.584 µM); in the assay with Pichia kudriavzevii it was 1 µg/mL (≈ 2.34 µM); against Nakaseomyces glabratus it was 0.13 µg/mL (≈ 0.304 µM). In addition, the MIC in the assay with Candida parapsilosis came out at 0.5 µg/mL (≈ 1.17 µM); with Aspergillus fumigatus it was 2 µg/mL (≈ 4.67 µM); in the assay with Candida albicans [3], 16 µg/mL (≈ 37.4 µM); in the assay with Candida albicans [4], 4 µg/mL (≈ 9.34 µM); against Candida albicans [5], 128 µg/mL (≈ 299 µM); in the assay on Candida albicans [6], 32 µg/mL (≈ 74.7 µM). This molecule came in with an MIC against Candida albicans [7] of 64 µg/mL (≈ 149 µM).

On to `COc1cc(C[Se]C(Cn2ccnc2)c2ccc(Cl)cc2Cl)cc(OC)c1` (centres undefined), for which the MIC against Candida albicans [1] is 0.13 µg/mL (≈ 0.276 µM); in the assay with Candida albicans [2] it was 0.13 µg/mL (≈ 0.276 µM); in [Candida] zeylanoides, 1 µg/mL (≈ 2.13 µM); in the assay on Cryptococcus neoformans it was 0.5 µg/mL (≈ 1.06 µM); against Pichia kudriavzevii, 8 µg/mL (≈ 17 µM); in the assay on Nakaseomyces glabratus, 0.25 µg/mL (≈ 0.532 µM). Also, the MIC is 0.5 µg/mL (≈ 1.06 µM) in the assay on Candida parapsilosis; 1 µg/mL (≈ 2.13 µM) with Aspergillus fumigatus; 4 µg/mL (≈ 8.51 µM) against Candida albicans [3]; 32 µg/mL (≈ 68 µM) with Candida albicans [4]; 32 µg/mL (≈ 68 µM) against Candida albicans [5]; 4 µg/mL (≈ 8.51 µM) against Candida albicans [6]. The molecule also displayed an MIC in the assay with Candida albicans [7] of 128 µg/mL (≈ 272 µM).

Regarding `Clc1ccc(C[Se]C(Cn2ccnc2)c2ccc(Cl)cc2Cl)cc1` (centres undefined), the MIC with Candida albicans [1] worked out at 0.06 µg/mL (≈ 0.135 µM); in the assay with Candida albicans [2], 0.03 µg/mL (≈ 0.0675 µM); in assay [Candida] zeylanoides, 8 µg/mL (≈ 18 µM); against Cryptococcus neoformans, 0.25 µg/mL (≈ 0.562 µM); in the assay on Pichia kudriavzevii, 0.5 µg/mL (≈ 1.12 µM); in the assay on Nakaseomyces glabratus, 1 µg/mL (≈ 2.25 µM). The MIC is 0.5 µg/mL (≈ 1.12 µM) against Candida parapsilosis; 2 µg/mL (≈ 4.5 µM) against Aspergillus fumigatus; 16 µg/mL (≈ 36 µM) against Candida albicans [3]; 8 µg/mL (≈ 18 µM) in the assay on Candida albicans [4]; 64 µg/mL (≈ 144 µM) with Candida albicans [5]; 8 µg/mL (≈ 18 µM) against Candida albicans [6]. In addition, in the assay on Candida albicans [7], the MIC is over 128 µg/mL.
